Data: patent publication US20020006421A1, “Long-acting, chemical-resistant skin emollients, moisturizers, and strengtheners” (priority 1997, published 2002)

Assay: Reaction with N-acetylcysteamine (model for skin-bound sulfhydryl groups) in the presence of base, followed by 1H NMR
Conditions: for time after which the reaction was complete by NMR: 1 equivalent N-acetylcysteamine per crotonyl moiety, CDCl3
From the text: As a model for skin-bound sulfhydryl groups (—SH) of cysteine residues in skin proteins, the compound N-acetylcysteamine was allowed to react with OSM in the presence of a catalytic amount of the base 1,5-diazabicyclo[4.3.0]non-5-ene (DBN) in chloroform solution.
As a model for skin-bound sulfhydryl groups (—SH) of cysteine residues in skin proteins, the compound N-acetylcysteamine was allowed to react with OCM in the presence of a catalytic amount of the base 1,5-diazabicyclo[4.3.0]non-5-ene (DBN) in chloroform solution.
As a model for skin bound sulfhydryl groups (—SH) of cysteine residues in skin proteins, the compound N-acetylcysteamine was allowed to react with DCPEG in the presence of a catalytic amount of the base 1,5-diazabicyclo[4.3.0]non-5-ene (DBN) in chloroform solution.
A solution of octadecyl S-sorbyl-3 -mercaptopropionate (10.9 mg, 0.024 mmol) in 0.3 mL of CDCl3 was added to a solution of N-acetylcysteamine (5.2 μL, 0.048 mmol) and DBN (3.1 μL, 0.025 mmol) in 0.3 mL of CDCl3. The mixture was immediately transferred to an NMR tube and the first spectrum was recorded at time=0. The reaction solution was allowed to stand at room temperature in the NMR tube for two days, and the course of the reaction was monitored by periodically recording the ^1H NMR spectrum. A total often ^1H NMR experiments were performed at time=0, 0.25, 0.5, 1, 1.5, 4.5, 12, 20.5, 26, and 39 hours.
The time course of the reaction of OSM with 2 equiv of N-acetylcysteamine in the presence of 1 equiv of DBN in 0.6 mL of CDCl3 was studied by recording ^1H NMR spectra at various times for 39 hours. The signals of the olefinic protons due to the sorbate group of OSM (δ 6.2-6.0 and δ 7.2) and that of the newly formed C═C bond of the monoadducts (δ 5.6-5.2) were monitored in particular. In the course of these experiments, it was observed that the signals at δ 6.2-6.0 and δ 7.2 disappeared, while those at δ 5.6-5.2 appeared over the first 1.5 hours of the reaction, which indicated the formation of the monoadducts. The olefinic protons signals of the monoadducts started to fade away gradually after 1.5 hours and became very weak by approximately 39 hours. These spectra may imply the formation of the diadduct.
The reaction of OCM with N-acetylcysteamine was carried out at room temperature as follows: 22.0 mg of OCM was dissolved in 0.6 mL of CDCl3 and 5.7 μL of N-acetylcysteamine (1 equivalent) was added. […] Then a catalytic amount (0.1 equiv) of the base DBN was added, and the NMR spectrum was recorded immediately and again after 5 minutes. By 5 minutes, more than 60% of the OCM had reacted as judged by the diminished integration of the resonances at 6.9 ppm and 6.1 ppm due to the vinyl protons of the crotonyl moiety of OCM. […] A COSY spectrum confirmed that the expected product, shown earlier herein, had been formed. Nucleophilic attack by the sulfur atom of N-acetylcysteamine, presumably as the thiolate anion, at the β-position of the unsaturated thiol ester generated the expected covalent adduct. […]
The reaction of DCPEG with N-acetylcysteamine was followed by NMR: 35.6 mg of DCPEG was dissolved in 0.7 mL CDCl3 and the spectrum was recorded before and after addition of N-acetylcysteamine (1 equivalent per crotonyl moiety). […]

[1] = 2 equiv N-acetylcysteamine, 1 equiv DBN, CDCl3, room temperature

Molecule | time by which the monoadduct olefinic proton signals became very weak (may imply diadduct formation) [1] | time over which sorbate olefinic signals disappeared and monoadduct signals appeared [1] | time after which the reaction was complete by NMR (0.1 equiv DBN) | OCM reacted, judged by diminished integration of the vinyl proton resonances (1 equivalent N-acetylcysteamine, 0.1 equiv DBN, CDCl3, room temperature, by 5 minutes)
C/C=C/C=C/C(=O)SCCC(=O)OCCCCCCCCCCCCCCCCCC [OSM, octadecyl S-sorbyl-3-mercaptopropionate] | approximately 39 hours | ≤ 1.5 h | – | –
C/C=C/C(=O)SCCC(=O)OCCCCCCCCCCCCCCCCCC [OCM, octadecyl S-crotonyl-3-mercaptopropionate] | – | – | 27 min | more than 60%
S,S′-dicrotonyl-α-thio-ω-mercapto[poly(ethylene glycol)] [DCPEG] | – | – | 5 min | –
